Test results reported in patent US8551921B2, “Method for determining the toxicity of an environmental or chemical sample” (priority 2000, dated 2013).
Where “and” joins values, the source holds several entries; their conditions need not be identical. Equal values may be shown once. Where a name gives a salt, the structure may show the parent alone. Read-outs that look alike come from different tables or passages of the source.

Assays:
[1] = tested on: JG3 (strain of marine origin); assay: MARA indicator device toxic fingerprint, microorganism no. 3; conditions: Microbial Toxic Concentration; incubation time 16 h
Procedure: (§1) • dispense 150 μl of growth medium with indicator in each well • add a concentration gradient of the chemical to be tested to rows B-H in a MARA plate (i.e. an indicator device according to the present invention) • incubate for 16 h • read absorbance values; and • analyse with software.
(§2) Microbial responses to different chemicals was estimated by kinetic measurements of their growth using the Labsystem automated IEMS reader. A computer software that could monitor incubation temperatures, reading intervals, and automatically transfer OD data to a computer was developed. A growth medium containing 0.05% peptone, 0.011% bromothymol blue (BTB), 1% sodium chloride and 0.3% glucose was added to all wells. The glucose acts as a carbon source, and during growth the microorganism will break down the glucose and produce acids, that will turn the initially blue indicator to yellow. Each microplate contains 12 columns and 8 rows, and thus in each plate, 11 lyophilized microbial strains were used (one for each column, the 12th column was used as negative control). […] In order to avoid drying out of the plates during the incubation, one drop of sterile mineral oil was added to each well. The plate was then incubated in the IEMS spectrophotometer and the absorbance value from each well was measured every second hour during 48 h.
(§3) The overall toxicity of the chemical compound can be described either as the mean of all 11 MTC values (shown in column 12), or as the minimum value for all 11 microbial strains used in the assay (marked with bold in the table).

[2] = tested on: 11 different microbial strains; conditions: for Toxic fingerprint: MTC value, Mean: mean of all 11 MTC values
Procedure: as §1, §2, §3
Concentrations are given in mg/ml.

E. coli MZ 480 = assay: MARA indicator device toxic fingerprint, microorganism no. 8; conditions: Microbial Toxic Concentration, incubation time 16 h
Procedure: as §1, §2, §3

[3] = tested on: β-proteobacterium A22 (Kalmar 200); assay: MARA indicator device toxic fingerprint, microorganism no. 5; conditions: Microbial Toxic Concentration; incubation time 16 h
Procedure: as §1, §2, §3

[4] = tested on: Staphylococcus epidermidis (Karin12); assay: MARA indicator device toxic fingerprint, microorganism no. 11; conditions: Microbial Toxic Concentration; incubation time 16 h
Procedure: as §1, §2, §3

[5] = tested on: JG4 (strain of marine origin); conditions: Microbial Toxic Concentration; incubation time 16 h
Procedure: as §1, §2, §3

[6] = tested on: Saccaromyces ceriviciae (bakers yeast); conditions: Microbial Toxic Concentration; incubation time 16 h
Procedure: as §1, §2, §3

[7] = tested on: JG1 (strain of marine origin); conditions: Microbial Toxic Concentration, incubation time 16 h
Procedure: as §1, §2, §3

ObanF = conditions: Microbial Toxic Concentration; incubation time 16 h
Procedure: as §1, §2, §3

[8] = tested on: JG2 (strain of marine origin); conditions: Microbial Toxic Concentration; incubation time 16 h
Procedure: as §1, §2, §3

[9] = tested on: Aeromonas hydriphila HG3 (RV 5.1); conditions: Microbial Toxic Concentration; incubation time 16 h
Procedure: as §1, §2, §3

E. coli = conditions: IC50-values, established assay; cited from earlier work
Daphnia = conditions: IC50-values, established assay; cited from earlier work
[10] = tested on: Photobacterium phosphoreum; conditions: IC50-values, established assay; cited from earlier work
microorganism no. 7 = assay: MARA indicator device toxic fingerprint, microorganism no. 7; conditions: Microbial Toxic Concentration; incubation time 16 h
Procedure: as §1, §2, §3

[11] = MTC value of the strain showing the highest sensitivity
[12] = mean MTC for the 11 microbial strains
[13] = 11 microbial strains (panel, species not named)

Row | SMILES | Toxic fingerprint: MTC value for microorganism no. 3 [1] | Toxic fingerprint: MTC value, Mean [2] | Toxic fingerprint: MTC value for microorganism no. 8 (E. coli MZ 480) | Toxic fingerprint: MTC value for microorganism no. 5 [3] | Toxic fingerprint: MTC value for microorganism no. 11 [4] | Toxic fingerprint: MTC value for microorganism no. 4 [5] | Toxic fingerprint: MTC value for microorganism no. 10 [6] | Toxic fingerprint: MTC value for microorganism no. 1 [7] | Toxic fingerprint: MTC value for microorganism no. 9 (ObanF) | Toxic fingerprint: MTC value for microorganism no. 2 [8] | Toxic fingerprint: MTC value for microorganism no. 6 [9] | Inhibitory concentrations by method: Daphnia (Daphnia) [mg/mL] | Inhibitory concentrations by method: Microtox [10] [mg/mL] | Toxic fingerprint: MTC value for microorganism no. 7 (microorganism no. 7) | other results
1 | C=CC(N)=O [Acryl amide] | 4.280 and 3.370 | 4.700 and 4.690 | 17.700 and 23.300 | 5.740 and 3.240 | 8.300 and 10.300 | 2.100 and 2.510 | 6.620 and 6.970 | 0.965 and 0.853 | 13.900 and 11.000 | 2.440 and 1.810 | 2.480 and 2.810 |  |  |  | Toxic fingerprint: MTC value for microorganism no. 8 (E. coli MZ 480; listed as acrylamid): 20; Toxic fingerprint: MTC value for microorganism no. 1 ([7]; listed as acrylamid): 0.9
2 | CN1[C@@H]2CC[C@H]1CC(OC(=O)C(CO)c1ccccc1)C2.CN1[C@@H]2CC[C@H]1CC(OC(=O)C(CO)c1ccccc1)C2.O=S(=O)(O)O (stereo partly drawn) [Atropin Sulphate] |  |  |  |  |  |  |  |  |  |  |  | 0.347 |  |  | Inhibitory concentrations by method: E. coli (E. coli): 56.294 mg/mL
3 | O=[N+]([O-])[O-].O=[N+]([O-])[O-].[Ba+2] [Barium nitrate] | 0.908 | 1.420 | 1.360 | 1.090 | 0.466 | 5.620 | 0.453 | 2.520 | 1.490 | 0.205 | 0.713 | 0.208 | 29.318 | 1.110 | Inhibitory concentrations by method: MARA MTCmin [2, 11]: 0.453 mg/mL; Inhibitory concentrations by method: MARA MTCmean [2, 12]: 1.420 mg/mL; mean toxicity levels (MTC values) ([2]; text to FIG. 7): 1.4 mg/L
4 | C[C@H]1O[C@@H](O[C@H]2[C@@H](O)C[C@H](O[C@H]3[C@@H](O)C[C@H](O[C@H]4CC[C@@]5(C)[C@H](CC[C@@H]6[C@@H]5C[C@@H](O)[C@]5(C)[C@@H](C7=CC(=O)OC7)CC[C@]65O)C4)O[C@@H]3C)O[C@@H]2C)C[C@H](O)[C@@H]1O [Digoxin] | 0.481 | 0.8 and 0.770 | 0.310 | 0.927 | 0.104 | 0.942 | 2.510 | 1.040 | 0.201 | 0.937 | 0.531 | 0.192 | 1.129 | 0.921 | Inhibitory concentrations by method: MARA MTCmin [2, 11]: 0.104 mg/mL; Inhibitory concentrations by method: MARA MTCmean [2, 12]: 0.770 mg/mL
5 | OCCO [Ethylene Glycol] |  |  |  |  |  |  |  |  |  |  |  | 74.625 | 167.064 |  | Inhibitory concentrations by method: MARA MTCmin [2]: 11.775 mg/mL; Inhibitory concentrations by method: MARA MTCmean [2, 13]: 28.400 mg/mL; Inhibitory concentrations by method: E. coli (E. coli): 270.945 mg/mL
6 | [Cl-].[Cl-].[Mg+2] [Magnesium Chloride] | 7.420 | 13.900 | 24.100 | 14.800 | 4.580 | 7.500 | 22.700 | 28.800 | 8.830 | 9.660 | 13.500 |  |  | 12.100 | 
7 | Cc1ccccc1C(OCCN(C)C)c1ccccc1 (stereo not drawn) [Orphenadrin HCl] |  |  |  |  |  |  |  |  |  |  |  |  |  |  | Toxic fingerprint: MTC value, Mean ([2]; HCl): 0.131 and 0.146
8 | Oc1ccccc1 [Phenol] |  |  |  |  |  |  |  |  |  |  |  | 0.007 | 0.133 |  | Inhibitory concentrations by method: MARA MTCmin [2]: 0.412 mg/mL; Inhibitory concentrations by method: MARA MTCmean [2, 13]: 0.831 mg/mL; Inhibitory concentrations by method: E. coli (E. coli): 2.258 mg/mL
9 | [Cl-].[K+] [Potassium Chloride] | 10.600 | 29.800 | 62.300 | 20.100 | 31.300 | 17.000 | 16.000 | 28.200 | 65.400 | 29.400 | 27.100 |  |  | 67.300 | 
10 | [N-]=[N+]=[N-] [Sodium Azide] | 0.056 | 0.111 | 0.592 | 0.054 | 0.146 | 0.088 | 0.106 | 0.025 | 2.000 | 0.045 | 0.082 |  |  | 0.126 | 
11 | CSc1ccc2c(c1)N(CCC1CCCCN1C)c1ccccc1S2 (stereo not drawn) [Tioridazin HCl] |  | 0.028 | 0.006 | 0.029 | 0.006 |  | 0.014 |  |  | 0.017 | 0.027 |  |  | 0.042 | Inhibitory concentrations by method: MARA MTCmin [2, 11]: 0.006 mg/mL; Inhibitory concentrations by method: MARA MTCmean [2, 12]: 0.028 mg/mL
